Key:
Format in all cases: physicochemical
[1] = Ozone gas resistance of the printed images; conditions: ink with 6 parts dye, printed on glossy photo paper; 40 ppm ozone, 60% RH, 24° C.; grade by color difference ΔE
Method: Use an ink-jet printer (Epson 270 manufactured by Epson Company), glossy photo paper (Epson) and the above described ink compositions for ink-jet printing. (2) Ozone Gas Resistance of the Printed Images Place the printed images in the Ozone Weathering Test Chamber (manufactured by China Surui Company) at 60% RH, 24° C. and 40 ppm ozone. Calculated the color difference (ΔE) before and after the test by the same method as described in (1) above and evaluate it in 3 grades based on the following benchmark: ΔE<10 ∘ ΔE<20 Δ ΔE>20 x

[2] = Evaluation of the dye solubility in water; conditions: grade by g/100 g water
From the text: (D) Evaluation of the Dye Solubility in Water (g/100 g Water)
Solubility of the dye in water >30 ∘
Solubility of the dye in water >15-20 Δ
Solubility of the dye in water <15 x

[3] = Xenon lamp light-resistance test of the printed images; conditions: ink with 6 parts dye, ink-jet printed on glossy photo paper; xenon lamp 0.36 W/m^2, 50 h, 60% RH, 24° C.; grade by color difference ΔE
Method: (§1) The mixture product M1, M2 or M3 and the pure compound obtained by separation according to the embodiments 1-3 are used as the magenta colorant, and the ink composition is prepared according to the formula shown in following table 1, and the magenta aqueous ink composition is obtained by filtering with a 0.45 μm membrane filter, wherein triethanolamine is added to adjust the pH value of the ink composition to 8-10, and deionized water is added to make the total amount reach 100 parts-by-weight (PBW).
(§2) Use an ink-jet printer (Epson 270 manufactured by Epson Company), glossy photo paper (Epson) and the above described ink compositions for ink-jet printing.
(1) Xenon Lamp Light-Resistance Test of the Printed Images
Irradiate the printed glossy photo paper manufactured by Canon and Epson with Xenon-lamp Weathering Test Chamber ZG-P (manufactured by China Surui Company) at 60% RH and 24° C. with illuminance of 0.36 W/m^2 for 50 h to test the color difference (ΔE) before and after the test. The color difference (ΔE) is calculated from the differences of values of L*, a*, b* before and after the test in the above described color measurement system (Unterlab) by the followings formula: ΔE=((difference of L*)^2+(difference of a*)^2+(difference of b*)^2)^1/2.
Three grades will be divided for the evaluation based on the following benchmark: […]

[4] = Evaluation of long-term stability of the dye in aqueous solvent system; design: key: ∘: No precipitation; Δ: Slight precipitation; x: Notable precipitation; conditions: 20 parts dye, 70 parts water, 10 parts ethylene glycol; 50° C. for 7d, then 0° C. for 7d; filtered, precipitation graded
Method: (E) Evaluation of Long-Term Stability of the Dye in Aqueous Solvent System
Heat and dissolve the system of 20 parts of dyes, 70 parts of water and 10 parts of ethylene glycol; after the solution cools down, store it airtight at a constant temperature of 50° C. for 7d; cool it down and store it at 0° C. for 7d; filter the solution and evaluate it in 3 grades based on the following benchmark: […]

[5] = Moisture resistance of the printed images; design: key: ∘: No bleeding; Δ: Slight bleeding; x: Notable bleeding; conditions: printed images at 50° C. and 90% RH for 168 h; bleeding judged by bare eyes
Method: as §1, §2
(3) Moisture Resistance of the Printed Images
Place the printed images in the Constant Temperature and Humidity Chamber (manufactured by China Surui Company) at 50° C. and 90% RH for 168 h; judge the bleeding of the ink by bare eyes before and after the test and evaluate it in 3 grades based on the following benchmark: […]

SMILES	Ozone resistance of ink printed images [1]	Solubility of dye in water [2]	Ultraviolet resistance of ink printed images [3]	Long-term stability of the dye in aqueous solvent system [4]	Water resistance of ink printed images [5]
O=S(=O)([O-])c1cc(Nc2nc(Nc3ccc(/C=C/c4ccc(Nc5nc(Nc6cc(S(=O)(=O)[O-])cc7cc(S(=O)(=O)[O-])c(N=Nc8ccccc8)c(O)c67)nc(N6CCOCC6)n5)cc4S(=O)(=O)[O-])c(S(=O)(=O)[O-])c3)nc(N3CCOCC3)n2)c2c(O)c(N=Nc3ccccc3)c(S(=O)(=O)[O-])cc2c1.[Na+].[Na+].[Na+].[Na+].[Na+].[Na+] [C.I. direct red 227, reference compound]	x (ΔE>20)	x (Solubility of the dye in water <15)	x (ΔE>20)	Δ	Δ
O=C(O)CCCS(=O)(=O)c1cc(S(=O)(=O)O)c(Nc2cc(S(=O)(=O)O)c3[nH]c(=O)c(C(=O)c4cccc(S(=O)(=O)O)c4)c4c3c2C(=O)c2ccccc2-4)c(S(=O)(=O)O)c1 [Dp2]	∘ (ΔE<10)	∘ (Solubility of the dye in water >30)	∘ (ΔE<10)	∘	∘
O=C(CCCS(=O)(=O)c1cc(S(=O)(=O)O)c(Nc2cc(S(=O)(=O)O)c3[nH]c(=O)c(C(=O)c4cccc(S(=O)(=O)O)c4)c4c3c2C(=O)c2ccccc2-4)c(S(=O)(=O)O)c1)c1cccc(S(=O)(=O)O)c1 [Dp4]	∘ (ΔE<10)	∘ (Solubility of the dye in water >30)	∘ (ΔE<10)	∘	∘

Now from value to compound:

Ozone resistance of ink printed images [1]	Solubility of dye in water [2]	Ultraviolet resistance of ink printed images [3]	Long-term stability of the dye in aqueous solvent system [4]	Water resistance of ink printed images [5]	SMILES
∘ (ΔE<10)	∘ (Solubility of the dye in water >30)	∘ (ΔE<10)	∘	∘	O=C(c1cccc(S(=O)(=O)O)c1)c1c2c3c(c(Nc4c(S(=O)(=O)O)cc(S(=O)(=O)CCC5C(=O)c6ccccc6C5=O)cc4S(=O)(=O)O)cc(S(=O)(=O)O)c3[nH]c1=O)C(=O)c1ccccc1-2 [Dp8]
∘ (ΔE<10)	∘ (Solubility of the dye in water >30)	∘ (ΔE<10)	∘	∘	O=C(c1cccc(S(=O)(=O)O)c1)c1c2c3c(c(Nc4c(S(=O)(=O)O)cc(S(=O)(=O)CCC5C(=O)c6ccc(S(=O)(=O)O)cc6C5=O)cc4S(=O)(=O)O)cc(S(=O)(=O)O)c3[nH]c1=O)C(=O)c1ccccc1-2 (stereo not shown) [Dp10]

From patent US8734580B2, “Carbonyl propyl sulfuryl anthrapyridone sulfonic acid compounds and their preparation methods and applications” (Dalian University of Technology, priority 2011, dated 2014)
